In US6319897A, “Peptides which inhibit complement activation” (priority 1999, dated 2001):
Like-named read-outs stand apart in the source and are kept apart here. Where a SMILES comes first, the peptide text is derived from it. Bridges are numbered along the chain shown (N, C = ends).

What was measured:
[1] = biological target: alternative pathway of complement activation (Homo sapiens, UniProt P01024); experiment: Hemolytic assay, alternative pathway: lysis of rabbit erythrocytes in normal human serum with MgEGTA; format: cell-based
Sequence of alternative pathway of complement activation (P01024 23-1663): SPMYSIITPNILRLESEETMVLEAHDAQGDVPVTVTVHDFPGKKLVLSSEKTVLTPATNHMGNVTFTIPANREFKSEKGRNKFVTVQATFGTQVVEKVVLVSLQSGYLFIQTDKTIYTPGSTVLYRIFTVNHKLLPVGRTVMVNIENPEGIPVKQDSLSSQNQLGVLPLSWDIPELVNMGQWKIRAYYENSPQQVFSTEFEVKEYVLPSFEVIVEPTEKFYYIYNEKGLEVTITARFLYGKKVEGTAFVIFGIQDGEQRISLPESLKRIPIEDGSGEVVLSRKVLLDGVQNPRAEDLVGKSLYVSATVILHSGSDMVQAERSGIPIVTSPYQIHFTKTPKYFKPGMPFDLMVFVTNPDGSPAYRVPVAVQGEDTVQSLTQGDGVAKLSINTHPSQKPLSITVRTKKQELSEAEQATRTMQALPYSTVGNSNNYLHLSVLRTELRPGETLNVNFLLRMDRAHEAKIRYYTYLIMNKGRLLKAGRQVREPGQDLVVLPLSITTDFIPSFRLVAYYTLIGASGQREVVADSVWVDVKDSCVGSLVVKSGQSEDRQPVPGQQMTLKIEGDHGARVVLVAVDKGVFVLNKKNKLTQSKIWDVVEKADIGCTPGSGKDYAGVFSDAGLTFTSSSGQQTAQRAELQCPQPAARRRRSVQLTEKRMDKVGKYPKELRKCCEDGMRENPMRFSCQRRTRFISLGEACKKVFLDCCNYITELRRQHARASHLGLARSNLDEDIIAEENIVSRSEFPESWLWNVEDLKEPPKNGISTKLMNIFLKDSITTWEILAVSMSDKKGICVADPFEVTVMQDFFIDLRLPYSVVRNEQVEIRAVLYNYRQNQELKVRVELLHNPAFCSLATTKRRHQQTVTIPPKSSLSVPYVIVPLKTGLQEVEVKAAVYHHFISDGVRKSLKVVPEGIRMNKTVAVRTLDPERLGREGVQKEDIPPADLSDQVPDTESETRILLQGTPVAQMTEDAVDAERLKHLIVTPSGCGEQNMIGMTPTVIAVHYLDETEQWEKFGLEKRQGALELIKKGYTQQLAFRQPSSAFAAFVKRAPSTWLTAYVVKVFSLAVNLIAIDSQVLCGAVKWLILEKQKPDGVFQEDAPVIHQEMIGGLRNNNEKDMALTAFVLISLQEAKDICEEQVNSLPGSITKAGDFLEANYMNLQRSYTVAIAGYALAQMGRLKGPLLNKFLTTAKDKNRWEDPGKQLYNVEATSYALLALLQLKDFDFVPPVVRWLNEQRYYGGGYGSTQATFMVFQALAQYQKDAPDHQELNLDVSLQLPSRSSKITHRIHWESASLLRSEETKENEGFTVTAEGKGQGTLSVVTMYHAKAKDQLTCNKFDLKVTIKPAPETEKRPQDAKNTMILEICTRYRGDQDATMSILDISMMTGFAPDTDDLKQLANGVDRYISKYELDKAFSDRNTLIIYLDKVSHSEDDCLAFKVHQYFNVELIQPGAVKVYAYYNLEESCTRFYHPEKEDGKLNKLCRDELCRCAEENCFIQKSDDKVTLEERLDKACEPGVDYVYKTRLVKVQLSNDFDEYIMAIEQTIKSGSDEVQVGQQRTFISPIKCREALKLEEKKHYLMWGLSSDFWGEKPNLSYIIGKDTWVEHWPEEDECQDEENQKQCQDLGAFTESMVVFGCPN
Experimental: Inhibition of the alternative pathway was measured by using rabbit erythrocytes in the presence of MgEGTA (FIG. 3A); inhibition of lysis of antibody-coated sheep erythrocytes was used as an indicator of inhibition of the classical pathway (FIG. 3B).
Inhibition of classical and alternative pathway activity by the peptides was measured. […] The reaction mixture was incubated at 37° C. for 1 hour and centrifuged. […] The effect of peptides on the alternative pathway was determined by measuring the lysis of rabbit erythrocytes (Er) in NHS. Various concentrations of peptide were mixed with 5 μl of NHS, 5 μl of MgEGTA and 10 μl of Er (1×10^9 /ml) and brought to a final volume of 100 μl in GVB. The reaction mixture was incubated at 37° C. for 20 minutes and stopped by adding 200 μl of GVBE. […] The percentage of lysis was normalized by considering 100% lysis to be equal to the lysis occurring in the absence of the peptide.

[2] = test system: alternative pathway-mediated hemolytic activity (thioester of C3); details: read-out: 50% inhibitory concentration, alternative pathway-mediated hemolytic activity; cited from earlier work
[3] = test system: classical pathway-mediated hemolytic activity (thioester of C3); details: read-out: 50% inhibitory concentration, classical pathway-mediated hemolytic activity; cited from earlier work
complement [4] = experiment: Complement-mediated hemolytic assay (pathway not stated); format: cell-based
Experimental: Inhibition of classical and alternative pathway activity by the peptides was measured. To determine the effect of peptides on the classical pathway, various concentrations of peptide were mixed with 11 μl of normal human serum (NHS, diluted 1:10 in GVB^++) and 5 μl of sheep erythrocytes coated with antibodies (EA) (1×10^9 /ml) and GVB^++ was added to give a total volume of 250 μl. The reaction mixture was incubated at 37° C. for 1 hour and centrifuged. The percentage of lysis was determined by measuring the optical density of the supernatant at 414 nm. The effect of peptides on the alternative pathway was determined by measuring the lysis of rabbit erythrocytes (Er) in NHS. Various concentrations of peptide were mixed with 5 μl of NHS, 5 μl of MgEGTA and 10 μl of Er (1×10^9 /ml) and brought to a final volume of 100 μl in GVB. The reaction mixture was incubated at 37° C. for 20 minutes and stopped by adding 200 μl of GVBE. After centrifugation, hemolysis was determined at 414 nm. The percentage of lysis was normalized by considering 100% lysis to be equal to the lysis occurring in the absence of the peptide.

C3d = biological target: T1, C3d (Homo sapiens, UniProt P01024); experiment: Phage clone binding ELISA, immobilized C3d; details: 2 μg coated, 1 hour 22° C.
T1 construct: C3d, 35,000 Mr fragment of C3 generated using elastase; from tissue; host or cells: normal human plasma; C3 treated with elastase, Mono Q purified
T1 sequence (P01024 1002-1303 limits assumed): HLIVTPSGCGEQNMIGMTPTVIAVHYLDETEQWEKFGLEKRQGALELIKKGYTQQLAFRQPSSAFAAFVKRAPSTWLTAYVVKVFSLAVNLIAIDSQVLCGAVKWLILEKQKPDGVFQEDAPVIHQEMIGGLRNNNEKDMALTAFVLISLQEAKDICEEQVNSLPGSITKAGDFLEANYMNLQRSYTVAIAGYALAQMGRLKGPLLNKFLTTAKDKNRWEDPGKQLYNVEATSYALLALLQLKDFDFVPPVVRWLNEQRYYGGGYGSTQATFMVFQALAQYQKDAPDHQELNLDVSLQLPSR
Experimental: (§1) Microtiter wells were coated with 2 μg of C3, C3b, C3c or C3d, saturated with blocking buffer, washed with PBS (pH 7.4) containing 0.05% Tween 20, and incubated 1 hour at 22° C. with a positive (clone 9) or negative (clone 1) clone. Binding was inhibited by adding 250 μg/ml of aggregated C3 in PBS, pH 7.4. Bound M13 phage particles were detected by peroxidase-coupled anti-M13 antibody and ABTS peroxidase substrate. Diagonally lined bars represent peroxidase-coupled anti-M13 antibody bound non-specifically to the plate; cross-hatched bars represent clone 9 bound to C3 or C3 fragments; horizontally lined bars represent clone 9 bound to C3 or C3 fragments in the presence of 250 μg/ml of aggregated C3; and vertically lined bars represent clone 1 bound to C3 or C3 fragments.
(§2) The C3-binding phage was isolated by screening the phage library described in Example 3. Microtiter well plates (Nunc Inc., Naperville, Ill.) were coated overnight with 20 μg of C3b in PBS at 4° C. and blocked with PBS containing 1% BSA for 30 minutes at 22° C. […] The amplified phage mixture obtained after the third round of amplification was plated, and positive phage were identified by confirming their binding to C3b in an ELISA, in which bound phage were detected by peroxidase-labeled anti-M13 antibody (Pharmacia). […]

C3 = biological target: T2, C3 (Homo sapiens, UniProt P01024); experiment: Phage clone binding ELISA, immobilized C3; details: 2 μg coated, 1 hour 22° C.
T2 construct: purified from normal human plasma in accordance with well known procedures; from tissue; host or cells: normal human plasma (C3, factor B)
T2 sequence (P01024 23-667 limits assumed): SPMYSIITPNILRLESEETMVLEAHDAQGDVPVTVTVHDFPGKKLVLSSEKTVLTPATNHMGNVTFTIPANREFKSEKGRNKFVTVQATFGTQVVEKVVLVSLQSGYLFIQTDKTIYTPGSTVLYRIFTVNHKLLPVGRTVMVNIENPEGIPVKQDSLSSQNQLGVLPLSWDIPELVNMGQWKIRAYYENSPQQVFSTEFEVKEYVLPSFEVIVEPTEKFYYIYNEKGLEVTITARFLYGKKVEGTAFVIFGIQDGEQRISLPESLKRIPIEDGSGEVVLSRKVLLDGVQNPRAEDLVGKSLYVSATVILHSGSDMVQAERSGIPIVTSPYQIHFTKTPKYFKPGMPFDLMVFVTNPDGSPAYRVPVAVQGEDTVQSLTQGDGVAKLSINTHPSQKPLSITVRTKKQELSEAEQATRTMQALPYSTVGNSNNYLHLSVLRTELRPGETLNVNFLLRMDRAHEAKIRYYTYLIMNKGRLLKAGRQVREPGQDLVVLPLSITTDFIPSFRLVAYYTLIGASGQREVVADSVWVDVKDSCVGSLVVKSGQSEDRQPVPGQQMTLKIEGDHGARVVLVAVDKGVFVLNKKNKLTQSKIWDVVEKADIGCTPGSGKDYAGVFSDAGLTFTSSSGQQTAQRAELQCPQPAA
T2 sequence (P01024 672-1663 limits assumed): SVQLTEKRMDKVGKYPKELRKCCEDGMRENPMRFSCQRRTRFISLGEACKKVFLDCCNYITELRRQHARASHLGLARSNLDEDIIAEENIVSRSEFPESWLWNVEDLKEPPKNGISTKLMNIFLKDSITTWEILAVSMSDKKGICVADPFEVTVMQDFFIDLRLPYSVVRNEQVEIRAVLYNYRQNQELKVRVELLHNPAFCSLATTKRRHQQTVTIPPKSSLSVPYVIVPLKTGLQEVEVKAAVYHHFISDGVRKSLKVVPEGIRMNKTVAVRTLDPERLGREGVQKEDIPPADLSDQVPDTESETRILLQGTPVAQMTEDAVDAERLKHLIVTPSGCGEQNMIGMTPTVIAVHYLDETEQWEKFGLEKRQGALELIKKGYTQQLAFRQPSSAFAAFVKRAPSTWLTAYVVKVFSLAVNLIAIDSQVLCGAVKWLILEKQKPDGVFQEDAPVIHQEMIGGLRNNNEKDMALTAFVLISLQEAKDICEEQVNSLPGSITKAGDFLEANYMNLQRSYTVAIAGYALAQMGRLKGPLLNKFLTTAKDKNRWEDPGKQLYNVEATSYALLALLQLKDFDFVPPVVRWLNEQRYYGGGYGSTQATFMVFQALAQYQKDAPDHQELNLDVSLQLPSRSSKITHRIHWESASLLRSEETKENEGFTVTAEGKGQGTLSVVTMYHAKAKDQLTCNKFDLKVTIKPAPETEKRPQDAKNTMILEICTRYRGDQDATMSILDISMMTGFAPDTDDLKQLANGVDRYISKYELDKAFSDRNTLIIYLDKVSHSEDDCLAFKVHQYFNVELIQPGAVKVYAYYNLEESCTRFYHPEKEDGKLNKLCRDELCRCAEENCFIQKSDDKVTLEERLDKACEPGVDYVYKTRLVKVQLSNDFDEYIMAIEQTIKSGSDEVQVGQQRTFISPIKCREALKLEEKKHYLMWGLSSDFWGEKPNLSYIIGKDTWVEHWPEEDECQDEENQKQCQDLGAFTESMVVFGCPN
Experimental: as §1, §2

C3b = biological target: T3, C3b (Homo sapiens, UniProt P01024); experiment: Phage clone binding ELISA, immobilized C3b; details: 2 μg coated, 1 hour 22° C.
T3 construct: from tissue; host or cells: normal human plasma; C3 cleaved with trypsin, Mono Q purified
Experimental: as §1, §2

C3c = biological target: T4, C3c (Homo sapiens, UniProt P01024); experiment: Phage clone binding ELISA, immobilized C3c; details: 2 μg coated, 1 hour 22° C.
T4 construct: C3c, 135,300 Mr fragment of C3 generated using elastase; from tissue; host or cells: normal human plasma; C3 treated with elastase, Mono Q purified
T4 sequence (P01024 23-667 limits assumed): as the sequence (P01024 23-667 limits assumed) above
T4 sequence (P01024 749-954 limits assumed): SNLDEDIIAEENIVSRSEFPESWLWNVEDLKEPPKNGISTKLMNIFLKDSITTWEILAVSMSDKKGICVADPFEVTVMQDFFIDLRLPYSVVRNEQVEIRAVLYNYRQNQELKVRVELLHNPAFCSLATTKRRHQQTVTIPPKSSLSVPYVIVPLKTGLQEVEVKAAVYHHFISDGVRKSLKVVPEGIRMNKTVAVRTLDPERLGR
T4 sequence (P01024 1321-1663 limits assumed): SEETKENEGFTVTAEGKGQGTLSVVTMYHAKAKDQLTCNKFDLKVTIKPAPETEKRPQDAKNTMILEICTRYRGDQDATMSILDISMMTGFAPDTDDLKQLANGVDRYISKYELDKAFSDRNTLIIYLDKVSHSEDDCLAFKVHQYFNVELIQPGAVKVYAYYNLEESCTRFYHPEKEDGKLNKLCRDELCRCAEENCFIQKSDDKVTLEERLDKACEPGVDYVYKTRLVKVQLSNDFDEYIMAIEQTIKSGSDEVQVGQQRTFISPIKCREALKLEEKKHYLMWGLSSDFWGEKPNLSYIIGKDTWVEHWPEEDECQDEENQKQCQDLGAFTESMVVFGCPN
Experimental: as §1, §2

complement [5] = details: in vivo; cited from earlier work

CC(C)[C@@H]1NC(=O)[C@H](C(C)C)NC(=O)[C@@H](N)CSSC[C@@H](C(N)=O)NC(=O)[C@H](CCCNC(=N)N)NC(=O)[C@H](Cc2c[nH]cn2)NC(=O)[C@H](C)NC(=O)CNC(=O)[C@H](Cc2c[nH]c3ccccc23)NC(=O)[C@H](CC(=O)O)NC(=O)[C@H](CCC(N)=O)NC1=O [XXI] (H-CVVQDWGAHRC-NH2; disulfide 1-11)
IC50 ([1]; read-out: A[…] IC50): 15 µM

CC(C)[C@@H]1NC(=O)[C@H](C(C)C)NC(=O)[C@@H](N)CSSC[C@@H](C(N)=O)NC(=O)[C@H](CCCNC(=N)N)NC(=O)[C@H](Cc2c[nH]cn2)NC(=O)[C@H](Cc2c[nH]cn2)NC(=O)[C@H](C)NC(=O)[C@H](Cc2c[nH]c3ccccc23)NC(=O)[C@H](CC(=O)O)NC(=O)[C@H](CCC(N)=O)NC1=O [XX] (H-CVVQDWAHHRC-NH2; disulfide 1-11)
IC50 ([1]; read-out: A[…] IC50): > 1200 µM

C[C@@H](O)[C@H](NC(=O)[C@@H]1CSSC[C@H](N)C(=O)N[C@@H](CC(=O)O)C(=O)N[C@@H](Cc2c[nH]c3ccccc23)C(=O)NCC(=O)N[C@@H](Cc2c[nH]cn2)C(=O)N[C@@H](Cc2c[nH]cn2)C(=O)N[C@@H](CCCNC(=N)N)C(=O)N1)C(N)=O [X] (H-CDWGHHRCT-NH2; disulfide 1-8)
IC50 ([1]; read-out: ALTERNATIVE PATHWAY IC50): > 600 µM

O=C(NO)c1ccccc1O [salicyl hydroxamate]
IC50 [2]: 33 µM | IC50 [3]: 280 µM

ICVVQDWGHHRCTAGHYY [SEQ ID NO: 23, peptide of the invention containing tyrosine residues at its C-terminus]
activity in hemolytic assay (complement [4]): equal activity to Peptide IV

SSICVVQDWGHHRCTAGHMANLTSHASAIR [Clone 9]
binding of phage clone to C3d (C3d): not to C3d | binding of phage clone to C3 (C3): bound | binding of phage clone to C3b (C3b): bound | binding of phage clone to C3c (C3c): bound

sCR1: soluble form of CR1 (complement receptor 1)
complement suppression in complement-dependent disease models (complement [5]): suppresses complement
